# Assay results from the supplement of paper PMC11451515.
# Test system: NOMO1
# Test: cell viability relative to DMSO control; higher = less cytotoxic
# Conditions: 48 h
# Method in brief: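 Library compounds in DMSO were pin-dosed in an 11-point threefold series (47 μM to 0.79 nM) onto leukemia cells in 1536-well plates (5 μl). Plates held 500 cells/well of NOMO1 or SEM or 1000 cells/well of P12-Ichikawa, each adapted for at least four passages in each medium. Luminescence was read with CellTiter-Glo One after 48 h at 37°C. Viability means the per-plate percentage relative to DMSO wells, using cell-free wells as background.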
# [1] = HPLM + 10% dialyzed FBS, 0.000781 µM
# [2] = HPLM + 10% dialyzed FBS, 0.00234 µM
# [3] = HPLM + 10% dialyzed FBS, 0.00702 µM
# [4] = HPLM + 10% dialyzed FBS, 0.0211 µM
# [5] = HPLM + 10% dialyzed FBS, 0.0632 µM
# [6] = HPLM + 10% dialyzed FBS, 0.19 µM
# [7] = HPLM + 10% dialyzed FBS, 0.569 µM
# [8] = HPLM + 10% dialyzed FBS, 1.71 µM
# [9] = HPLM + 10% dialyzed FBS, 5.12 µM
# [10] = HPLM + 10% dialyzed FBS, 15.4 µM
# [11] = HPLM + 10% dialyzed FBS, 46.1 µM
# [12] = RPMI 5 mM glucose + 10% FBS, 0.000781 µM
# [13] = RPMI 5 mM glucose + 10% FBS, 0.00234 µM
# [14] = RPMI 5 mM glucose + 10% FBS, 0.00702 µM
# [15] = RPMI 5 mM glucose + 10% FBS, 0.0211 µM
# [16] = RPMI 5 mM glucose + 10% FBS, 0.0632 µM
# [17] = RPMI 5 mM glucose + 10% FBS, 0.19 µM
# [18] = RPMI 5 mM glucose + 10% FBS, 0.569 µM
# [19] = RPMI 5 mM glucose + 10% FBS, 1.71 µM
# [20] = RPMI 5 mM glucose + 10% FBS, 5.12 µM
# [21] = RPMI 5 mM glucose + 10% FBS, 15.4 µM
# [22] = RPMI 5 mM glucose + 10% FBS, 46.1 µM
# [23] = RPMI 5 mM glucose + 10% dialyzed FBS, 0.000781 µM
# [24] = RPMI 5 mM glucose + 10% dialyzed FBS, 0.00234 µM
# [25] = RPMI 5 mM glucose + 10% dialyzed FBS, 0.00702 µM
# [26] = RPMI 5 mM glucose + 10% dialyzed FBS, 0.0211 µM
# [27] = RPMI 5 mM glucose + 10% dialyzed FBS, 0.0632 µM
# [28] = RPMI 5 mM glucose + 10% dialyzed FBS, 0.19 µM
# [29] = RPMI 5 mM glucose + 10% dialyzed FBS, 0.569 µM
# [30] = RPMI 5 mM glucose + 10% dialyzed FBS, 1.71 µM
# [31] = RPMI 5 mM glucose + 10% dialyzed FBS, 5.12 µM
# [32] = RPMI 5 mM glucose + 10% dialyzed FBS, 15.4 µM
# [33] = RPMI 5 mM glucose + 10% dialyzed FBS, 46.1 µM
Compound,cell viability [1],cell viability [2],cell viability [3],cell viability [4],cell viability [5],cell viability [6],cell viability [7],cell viability [8],cell viability [9],cell viability [10],cell viability [11],cell viability [12],cell viability [13],cell viability [14],cell viability [15],cell viability [16],cell viability [17],cell viability [18],cell viability [19],cell viability [20],cell viability [21],cell viability [22],cell viability [23],cell viability [24],cell viability [25],cell viability [26],cell viability [27],cell viability [28],cell viability [29],cell viability [30],cell viability [31],cell viability [32],cell viability [33]
CCN(CC)CCCC(C)Nc1nc(C)cc(Nc2ccc3nc(C)cc(N)c3c2)n1 (centres undefined),79.6%,105%,124%,125%,108%,125%,119%,129%,102%,111%,114%,96.3%,111%,110%,113%,123%,116%,124%,110%,120%,108%,111%,106%,108%,114%,111%,122%,115%,120%,107%,115%,94.6%,103%
CCCCCN(CCC12CC3CC(CC(C3)C1)C2)C(=O)NCCCc1ccncc1,111%,120%,116%,114%,115%,109%,108%,93.7%,111%,112%,97.3%,98.2%,110%,107%,110%,116%,113%,97.8%,113%,96.5%,107%,98.4%,104%,102%,119%,120%,116%,107%,116%,111%,116%,94.1%,99.1%
CS[C@H]1SC[C@@H]2C(=O)N(C)[C@H](C(C)C)C(=O)OC[C@H](NC(=O)c3cnc4ccccc4n3)C(=O)N[C@H](C)C(=O)N(C)[C@H]1C(=O)N(C)[C@H](C(C)C)C(=O)OC[C@H](NC(=O)c1cnc3ccccc3n1)C(=O)N[C@H](C)C(=O)N2C,90.5%,92.4%,81%,34%,7.25%,7.68%,7.01%,6.88%,6.12%,5.83%,3.83%,86.1%,83%,92.4%,44.5%,5.63%,5.77%,5.98%,5.95%,5.48%,4.23%,4.39%,92.6%,81.1%,83.2%,49.8%,5.73%,5.24%,5.79%,5.79%,5.29%,4%,3.33%
COc1cc2ncn(-c3cc(OCc4ccccc4C(F)(F)F)c(C(N)=O)s3)c2cc1OC,124%,117%,126%,117%,120%,115%,89.2%,46.1%,42.2%,41.2%,24.9%,99.2%,111%,116%,111%,120%,118%,110%,94.9%,26.3%,24.6%,17.6%,108%,122%,112%,113%,112%,123%,117%,85.2%,32.4%,30.1%,24.9%
Oc1ccc2ccccc2c1SSc1c(O)ccc2ccccc12,94.5%,101%,101%,126%,124%,135%,111%,125%,114%,92.8%,103%,98.9%,94.4%,111%,119%,108%,109%,110%,107%,96.9%,104%,96.4%,85.3%,93.9%,117%,116%,105%,105%,109%,105%,96.3%,100%,78.9%
N#CC[C@H](C1CCCC1)n1cc(-c2ncnc3[nH]ccc23)cn1,117%,106%,103%,91.3%,105%,107%,85.1%,85.8%,61.4%,21.2%,15.7%,94.3%,84.2%,101%,78.9%,82.7%,79.1%,87.1%,78.1%,91.3%,43%,14.8%,97.1%,102%,93.2%,66%,108%,93.8%,88.7%,89.9%,79.9%,61.2%,41.2%
CCC(C1CCC(C)C(O1)C(C)C(O)C(C)C(=O)C(CC)C2OC\3(O[C@]4(CC[C@@](C)(O4)C5CC[C@@](O)(CC)C(C)O5)C(O)\C=C3)C(C)CC2C)C([O-])=O (some centres undefined),111%,121%,101%,91.2%,119%,109%,117%,68.6%,38%,27.3%,26.4%,90.5%,34.1%,99.9%,90.6%,114%,110%,97.1%,67.6%,19.7%,16.6%,15.3%,96.9%,78.6%,132%,153%,119%,75.1%,102%,36.2%,15.2%,13.5%,11%
NC[C@H]1O[C@H](O[C@H]2[C@H](O)[C@@H](O[C@H]3O[C@H](CO)[C@@H](O)[C@H](N)[C@H]3O)[C@H](N)C[C@@H]2N)[C@H](N)C[C@@H]1O,103%,99.1%,122%,92.5%,110%,106%,112%,102%,102%,91.9%,106%,109%,103%,101%,110%,104%,103%,105%,94.6%,104%,101%,107%,95.3%,101%,95.2%,96%,96.6%,99.7%,94.3%,89.7%,81.7%,97.2%,93.4%
